Measurements: patent US20250161286A1 (AEVIS BIO, INC., priority 2022, published 2025)

Key:
iNOS and COX-2 = iNOS and COX-2 mRNA expression in LPS-stimulated BV-2 cells (real-time PCR); assay type: cell-based, mouse; details: BV-2 cells, 3.33, 10 or 30 μM, 1 μg/mL LPS, 6 hours
Method: Finally, to determine the mRNA expression levels of iNOS and COX-2, BV-2 was seeded in a 6-well plate (Corning, MD, USA) at 5×10^5 cells/well, and cultured using a DMEM medium (Corning, MD, USA) containing 10% fetal bovine serum (Corning, MD, USA) and 100 U/ml of penicillin/streptomycin (Corning, MD, USA) at 37° C. in a 5% CO2 incubator for one day for stabilization. […] 1 μg/mL of LPS (Sigma, USA) was added to all experimental groups excluding the non-inflammation-induced group and allowed to react at 37° C. in a 5% CO2 incubator for 6 hours.
The drug-treated BV-2 underwent RNA prep according to the kit manual using an RNA prep kit (Monarch Total RNA Miniprep kit, NEB, UK), and the concentration was measured using a nanophotometer (NP80, Implen, Germany). […]
The expression level of each oxidative stress-associated gene in the synthesized cDNA was analyzed and compared using Real-Time PCR (StepOne™ Bioscience, USA) equipment. […] The CT value for the gene of each sample obtained through real-time PCR was normalized by the value of the internal control gene (GAPDH) of each sample, the expression level was estimated inversely by 2ΔΔCT calculation, and the resulting value of each group was quantified and expressed as a percentage relative to the LPS-only treatment group.

[1] = test system: tyrosine hydroxylase (TH); experiment: Immunohistochemical test of tyrosine hydroxylase in brain of MPTP mice; assay type: in vivo, mouse; details: oral, versus MPTP group
Method: To cause the disease, mice in the G2, G3, G4, and G5 groups were administered MPTP dissolved in saline via an intraperitoneal route at 2-hour intervals four times a day (20 mg/kg/time), while the G1 group received the same amount of saline.
After the end of the test on day 7, the brain tissue of the sacrificed mice was collected, sectioned, and analyzed.
Six mice per group were fixed by perfusion with saline followed by perfusion with 4% paraformaldehyde (Biosesang, cat #PC2031-000-00). Each brain tissue was rapidly frozen after isolation and stored at −80° C. until tissue sectioning. Sections for immunohistochemical testing were embedded in an OCT compound (SAKURA, cat #4583), samples were sectioned into 20 μm-thick sections using a cryomicrotome, Leica CM1950 (Leica Microsystems, Germany), and each section was stored at 4° C. until an antibody reaction. […] Images stained with the tyrosine hydroxylase antibody were observed under a microscope (Olympus, SZ61, BX51), and the OD values, which are immunostaining-positive, observed in the striatum and substantia nigra tissue were measured and analyzed by the Image J program.

`Nc1cccc2c1C(=S)N(C1CCC(=O)NC1=O)C2=O` (stereo not drawn) [3-MP, 3-thiopomalidomide] was tested, and the “mRNA expression of oxidative stress-associated gene (iNOS, COX-2)” value (iNOS and COX-2) was “effectively inhibit the mRNA expression of an oxidative stress-associated gene”, the “expression of tyrosine hydroxylase in the substantia nigra” value ([1]; 30 and 90 mg/kg) was “increased in a statistically significant manner” and the “expression of tyrosine hydroxylase (TH) in the striatum” value ([1]; all doses, particularly 30 mg/kg) was “significantly increased”.
